Measured values taken from PubChem BioAssay (NCI).
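Five concentrations, 48 hours, 96-well plates. The concentration for 50% growth inhibition is given as GI50. TGI: concentration producing complete growth inhibition.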

Columns and labels:
Assay in all cases: NCI anticancer screen, dose series, 48 h
SK-MEL-5 melanoma = test system: SK-MEL-5 melanoma
MCF7 breast = test system: MCF7 breast
RPMI-8226 leukemia = test system: RPMI-8226 leukemia
NCI/ADR-RES ovarian = test system: NCI/ADR-RES ovarian
OVCAR-3 ovarian = test system: OVCAR-3 ovarian
MALME-3M melanoma = test system: MALME-3M melanoma
M14 melanoma = test system: M14 melanoma
CCRF-CEM leukemia = test system: CCRF-CEM leukemia
UACC-257 melanoma = test system: UACC-257 melanoma
SF-295 CNS = test system: SF-295 CNS
SK-OV-3 ovarian = test system: SK-OV-3 ovarian

| SMILES | TGI (SK-MEL-5 melanoma) [µM] | TGI (MCF7 breast) [µM] | TGI (RPMI-8226 leukemia) [µM] | TGI (NCI/ADR-RES ovarian) [µM] | TGI (OVCAR-3 ovarian) [µM] | TGI (MALME-3M melanoma) [µM] | TGI (M14 melanoma) [µM] | TGI (CCRF-CEM leukemia) [µM] | TGI (UACC-257 melanoma) [µM] | TGI (SF-295 CNS) [µM] | TGI (SK-OV-3 ovarian) [µM] | GI50 (SK-OV-3 ovarian) [µM] | GI50 (CCRF-CEM leukemia) [µM] | GI50 (UACC-257 melanoma) [µM] | GI50 (MCF7 breast) [µM] | GI50 (RPMI-8226 leukemia) [µM] | GI50 (NCI/ADR-RES ovarian) [µM] | GI50 (OVCAR-3 ovarian) [µM] | GI50 (MALME-3M melanoma) [µM] |
| --- | --- | --- | --- | --- | --- | --- | --- | --- | --- | --- | --- | --- | --- | --- | --- | --- | --- | --- | --- |
| CC(=O)OC/C=C/Cn1ncc(=O)[nH]c1=O | > 100 | > 100 | > 100 | > 100 | > 100 | > 100 | > 100 | – | – | – | – | – | – | – | – | – | – | – | – |
| Nc1nncc2c1ccn2C1OC(CO)C(O)C1O (stereo not drawn) | > 100 | – | > 100 | – | > 100 | > 100 | > 100 | > 100 | > 100 | > 100 | > 100 | – | – | – | – | – | – | – | – |
| Cc1ccc(S(=O)(=O)N/N=c2\c(C)c(C3=NS(=O)(=O)c4cc(S(N)(=O)=O)c(Cl)cc4N3)oc3c(Cl)cc(Cl)cc23)cc1 | > 100 | – | > 100 | – | > 100 | > 100 | > 100 | > 100 | > 100 | > 100 | > 100 | – | – | – | – | – | – | – | – |
| CCOC(=O)Nc1cc2c(c(N)n1)N=C(c1ccccc1)[C@H](C)N2 | – | – | 22.4 | – | 0.016 | 16.4 | 13.8 | 0.0464 | – | – | 78.8 | < 0.0001 | – | – | – | – | – | – | – |
| O=C(CCl)NC(Cc1ccc(F)cc1)C(=O)O (stereo not drawn) | > 100 | > 100 | > 100 | > 100 | > 100 | > 100 | – | > 100 | > 100 | > 100 | > 100 | – | – | – | – | – | – | – | – |
| Oc1c2c(c3c4c1N=CC=4CCN=3)-c1c(Br)cc(Br)cc1CCN2 | 3.38 | 4.16 | 17.5 | 12.5 | – | – | – | 6.7 | 2.86 | 11 | 24.9 | – | – | – | – | – | – | – | – |
| CC(=O)O[C@H]1CC[C@@]2(C)C(=CC[C@@H]3[C@@H]2CC[C@]2(C)Nc4c(cnn4S(C)(=O)=O)C[C@@H]32)C1 | 30.6 | > 100 | > 100 | > 100 | > 100 | > 100 | 75.2 | > 100 | – | > 100 | > 100 | – | – | – | – | – | – | – | – |
| COc1cc(N/N=C/C#N)cc(OC)c1OC | > 10 | > 10 | 5.68 | > 10 | > 10 | > 10 | > 10 | > 10 | – | > 10 | > 10 | – | – | – | – | – | – | – | – |
| CC[C@H](Nc1nc(N)nc(C)c1C#N)c1nc2cccc(NCc3ccc(C(=O)NO)cc3)c2c(=O)n1-c1ccccc1 | – | 9.06 | 9.78 | > 100 | 3.26 | 4.13 | – | > 100 | 6.2 | – | 5.03 | 2.05 | 0.679 | 1.94 | 2.01 | 2.27 | 13.5 | 1.2 | 1.63 |
| Cc1ccc([N+](=O)[O-])cc1NC(=O)C(=O)C(C(=O)c1ccccc1F)C1OC(=O)c2ccccc21 (stereo not drawn) | > 100 | – | > 100 | – | – | – | > 100 | > 100 | > 100 | > 100 | > 100 | – | – | – | – | – | – | – | – |
| NC(=S)Nc1cc(Cl)ccc1Cl | > 100 | – | > 100 | – | > 100 | > 100 | > 100 | > 100 | > 100 | > 100 | > 100 | – | – | – | – | – | – | – | – |
| N=c1nc2n(cc1F)[C@@H]1O[C@H](CO)[C@@H](O)[C@@H]1O2 | > 74.7 | > 100 | > 100 | > 100 | > 100 | > 34 | 7.81 | > 12.3 | > 100 | > 100 | > 100 | – | – | – | – | – | – | – | – |
| O=C1Nc2ccccc2S/C1=C\c1cccc(C(F)(F)F)c1 | > 100 | > 100 | > 100 | > 100 | > 100 | > 100 | > 100 | > 100 | > 100 | > 100 | > 100 | – | – | – | – | – | – | – | – |
| CC(C)OC(=O)C1=C(O)c2ccccc2S(=O)(=O)N1 | > 100 | – | – | – | > 100 | > 100 | > 100 | > 100 | > 100 | > 100 | > 100 | – | – | – | – | – | – | – | – |
| C=C1CC[C@@H](Br)C(C)(C)[C@]12CCC(C)(O)C(Cl)C2 (stereo partly drawn) | 35.7 | – | 40.2 | – | 35.8 | 86.2 | – | 47.9 | 32.4 | 43.1 | 37.4 | – | – | – | – | – | – | – | – |
| CCC1CN2CCC1CC2 (stereo not drawn) | > 100 | > 100 | > 100 | > 100 | > 100 | > 100 | – | > 100 | > 100 | > 100 | > 100 | – | – | – | – | – | – | – | – |
| Cc1cc2c(cc1C)[n+](=O)c(C#N)c(Cl)n2[O-] | 29 | 27.5 | 55.6 | 42.3 | 20.6 | 30 | – | 45.3 | 27 | > 100 | 70.5 | – | – | – | – | – | – | – | – |
| O=C1Nc2ccccc2S/C1=C\c1ccccc1C(F)(F)F | > 100 | > 100 | > 100 | > 100 | > 100 | > 100 | > 100 | > 100 | > 100 | > 100 | > 100 | – | – | – | – | – | – | – | – |
| CCCCCCCCCCCCCCCC(=O)OCC1CCCN2CCCCC12 (stereo not drawn) | > 100 | > 100 | > 100 | > 100 | > 100 | > 100 | > 100 | > 100 | > 100 | > 100 | > 100 | – | – | – | – | – | – | – | – |
| CCOC(=O)[C@H]1Nc2c(cccc2[N+](=O)[O-])[C@H]2OCC[C@@H]12 | > 100 | – | > 100 | – | > 100 | > 100 | > 100 | – | 86.1 | > 100 | – | – | – | – | – | – | – | – | – |
| CC1CCC(O)(C(C)(C(=O)O)c2ccccc2)CC1 (stereo not drawn) | > 100 | – | – | > 100 | > 100 | > 100 | > 100 | > 100 | > 100 | > 100 | – | – | – | – | – | – | – | – | – |
| O=C(O)NCc1ccccc1 (tested in a mixture with another compound) | 33.4 | > 100 | 31.1 | > 90 | > 96.1 | 85.9 | 99.3 | 51.7 | > 95.9 | > 100 | > 100 | – | – | – | – | – | – | – | – |
| C/C(=N\Oc1cc(Cl)ncn1)c1ccccn1 | > 100 | > 100 | > 100 | > 100 | > 100 | > 100 | > 100 | > 100 | > 100 | > 100 | > 100 | – | – | – | – | – | – | – | – |
| O=C(N/C(=C\c1cccc([N+](=O)[O-])c1)c1nc2[nH]c(=S)[nH]c(=O)c2[nH]1)c1ccccc1 | > 100 | – | > 100 | – | > 100 | > 100 | > 100 | > 100 | > 100 | > 100 | > 100 | – | – | – | – | – | – | – | – |
